Measured values as given in patent US8680133B2, “Alkyl indole-3-carbinol-derived antitumor agents” (The Ohio State University Research Foundation, priority 2009, dated 2014).

Key:
[1] = tested on: PC-3 xenograft tumor; assay: PC-3 xenograft tumor growth in nude mice, oral gavage; type: in vivo; conditions: 25 and 50 mg/kg per day by oral gavage, 49-day treatment; in words
Method: FIG. 2 provides three graphs (A-C) showing the in vivo effects of OSU-A9M (C) versus OSU-A9 (A) and OSU-A9 F (B), each at 25 and 50 mg/kg per day by oral gavage, on suppressing PC-3 xenograft tumor growth in nude mice (n=6).
The efficacy studies were therefore repeated with OSU-A9M and OSU-A9F, following 42 days and 49 days treatment, respectively, versus OSU-A9 with 49-day treatment.
In all three treatments, the body weights of drug-treated mice were not affected. No signs of overt toxicity were observed.

[2] = tested on: PC-3 prostate cancer cells; assay: MTT assay of PC-3 cell viability; type: cell-based; conditions: MTT assay, 24, 48 and 72 h; comparison in words
Method: Each data point represents means±S.D. (n=6). The activity of OSU-A9M versus its parent compound A9 ([1-(3′-nitro-4′-chlorobenzenesulfonyl)-1H-indol-3-yl]-methanol) and its fluorinated counterpart OSU-A9F ([1-(4-Chloro-3-nitro-benzenesulfonyl)-5-fluoro-1H-indol-3-yl])-methanol in suppressing the cell viability of PC-3 prostate cancer cells was compared using the MTT [3-(4,5-dimethylthiazol-2-yl)-2,5-diphenyl-2H-tetrazolium bromide] assay. Cancer cells and PrECs were grown in 5% FBS-supplemented RPMI 1640 medium or 5% FBS-supplemented prostate epithelial growth medium, respectively, in 96-well, flat-bottomed plates for 24 h, and then exposed to various concentrations of test agents in the same medium for the indicated time intervals. Controls received DMSO vehicle at a concentration equal to that in drug-treated cells. At the end of the treatment, the medium was removed, replaced by 200 μL of 0.5 mg/mL of MTT in the same medium, and cells were incubated in the CO2 incubator at 37° C. for 2 h. Supernatants were removed from the wells, and the reduced MTT dye was solubilized in 200 μL/well DMSO. Absorbance at 570 nm was determined on a plate reader.

| Compound | Tumor growth suppression in the PC-3 model [1] | In vitro potency against the viability of PC-3 cells [2] |
| --- | --- | --- |
| O=[N+]([O-])c1cc(S(=O)(=O)n2cc(CO)c3ccccc32)ccc1Cl [OSU-A9, [1-(3′-nitro-4′-chlorobenzenesulfonyl)-1H-indol-3-yl]-methanol, reference compound] | significant tumor growth suppression |  |
| O=[N+]([O-])c1cc(S(=O)(=O)n2cc(CO)c3cc(F)ccc32)ccc1Cl [OSU-A9F, reference compound] |  | greater than or similar to that of OSU-A9 |
